Measurements: patent publication US10675293B2, “Nucleoside agents for the reduction of the deleterious activity of extended nucleotide repeat containing genes” (The Board of Trustees of the Leland Stanford Junior …, priority 2015, dated 2020)

What was measured:
[1] = test system: mutant Htt gene; assay: RT-PCR of Htt mRNA in Hdh Q111/Q111 striatal cells; type: cell-based, mouse; details: compared to mock control
Experimental: Tet-on HeLa cells (Clontech Laboratories), and stable line 2-PN4 and 21-VS were cultured in DMEM (Gibco) supplemented with 10% Tet-off fetal bovine serum (Gibco) at 37° C. with 5% CO2. Hdh Q7/Q7 (mouse), Hdh Q111/Q111 (mouse) were cultured in DMEM (HyClone) supplemented with 10% fetal bovine serum at 33° C. with 5% C02.
Total RNA was extracted from murine neuronal cells using TRI Reagent (Sigma). For cDNA conversion, 2 μg of total RNA was mixed with 5 μM random primer, 5 μM SnRNA U6 rt-PCR primer and 500 μM dNTPs, incubated at 65° C. for 5 min and then chilled on ice. After addition of First-Strand Buffer, DTT (Cf=10 mM) and 1 μl reverse transcriptase (Invitrogen), the reaction was carried out at 42° C. for 1 hr. Equal volumes of cDNA products were PCR amplified and resolved on 2.5% agarose gels to determine the abundance of Htt transcripts after normalization with U6 or 18S ribosomal RNA.

[2] = test system: Q20-GFP; assay: PolyQ-tagged GFP reporter in HEK293 cells, Q20-GFP; type: cell-based; details: higher concentration, 48 hours after transfection
Text: CAG repeats and part of the flanking region in the first exon of Htt gene were PCR amplified from cDNA of HD patient lymphoblastoid cells containing one normal and one mutant allele (Q22 and Q44) with additional flanking restriction enzyme sites NheI. The PCR fragments were than in-frame fused with pEGFP-C1 at the end of the EGFP gene to express polyQ tagged GFP.
Normal length of poly Q (Q20) and pathogenic length of poly Q(Q44) were in-frame fused at the amino-terminus of eGFPC1 protein to generate Q44- and Q20-GFP (FIG. 8A). The plasmid carrying the polyQ tagged GFP was transfected into HEK 293 cells with greater than 90% transfection efficiency.
(§1) HEK293 cells were transiently transfected with the above mentioned GFP constructs. Five hours after transfection, cells were split among the wells of a 24-well plate and various concentrations of HD101 were added into the wells. 48 hours after transfection, cells were washed with PBS, fixed with 4% paraformaldehyde, and then nuclear stained with DAPI. The cell images were taken by fluorescent microscope (FIG. 9A) and the GFP and DAPI intensity of each field were quantitated using software Image Pro 6.2.

[3] = test system: Supt4h-YC and NGN-YN protein expression; assay: Western blot of Supt4h-YC and NGN-YN protein levels in 2-PN4 cells; type: cell-based, human
Experimental: As described (Liu et al., “Spt4 is selectively required for transcription of extended trinucleotide repeats,” Cell (2012) 148:690-701), equal amounts of protein were resolved by electrophoresis on 12% sodium dodecyl sulfate (SDS)-polyacrylamide gels, and transferred onto nitrocellulose membranes (nitrocellulose, Waterman 0.45 μM, NBA085C). After blocking with 5% low-fat milk in Tris-buffer saline containing 0.1% Tween-20, membranes were probed with primary antibodies, incubated with a horseradish peroxidase (HRP)-conjugated secondary antibody, and detected by ECL reagent (enhanced chemiluminescence, PerkinElmer).

[4] = test system: eGFPC1; assay: GFP reporter in HEK293 cells, eGFPC1 without polyQ; type: cell-based; details: higher concentration, 48 hours after transfection
Experimental: as §1

[5] = test system: 21-VS cells (HA-Venus); assay: Control fluorescence of 21-VS stable cells expressing intact Venus; type: cell-based; details: higher concentration, where BiFC reduction has reached its plateau
Experimental: The HA-Supt4h-YC and FLAG-NGN-YN fragments were amplified by PCR using plasmid constructs described above and sub-cloned individually into the pTRE-tight-BI vector (Clontech Laboratories), which contain a bi-directional CMV promoter under the control of tetracycline. The coding sequence of yellow fluorescence protein Venus with a HA-epitope in its N-terminus was PCR-amplified and cloned into the vector to generate pTRE-HA-Venus.
Tet-on HeLa cells were transfected with linearized pTRE-HA-Supt4h-VC-Flag-NGN-VN plasmid construct using LipofectAMINE 2000 (Invitrogen). After transfection, cells were cultured initially in growth medium containing puromycin (1 μg/ml) and then selected for clones that show YFP fluorescence in the presence of tetracycline (4 μg/ml). The stable line having the strongest fluorescence signal was isolated and designated as 2-PN4. […]
Stable lines 2-PN4 and 21-VS were pre-cultured in 6-well plates, followed by an incubation of Doxycycline (4 μg/ml) together with various concentrations of chemical compounds for 24 hr. Cells were washed with PBS (Sigma) and monitored by microscope (20× magnification). Photos were taken using Nikon D500 camera with a setting of ISO 1600, shutter 1/200 for the light images, and shutter ½ for the fluorescence images. […] The average of overall fluorescence signal was determined and compared to the one observed in DMSO-treated control sample. […]

In the case of `O=c1cnn([C@@H]2O[C@H](CO)[C@@H](O)[C@H]2O)c(=O)[nH]1` [HD101, 6-Azauridine], the “Htt mRNA transcribed from mutant allele” value [1] was “down-regulates the expression of mutant Htt gene”, the “Q20-GFP expression (GFP intensity normalized with DAPI)” value [2] was “down regulating both Q20 and Q44-GFP significantly” and the “protein expression of Supt4h-YC and NGN-YN” value [3] was “does not decrease the BiFC signal via a change in the protein level”. The “eGFPC1 expression (GFP intensity normalized with DAPI)” value [4] was “minimum effect” and the “fluorescence of 21-VS cells” value [5] was “markedly affected”.
